Each structure is given as a SMILES string. Calls of active or inactive are those of the source. The calls are words filed in the database; no cut-off is given here.

Experiment [1] deals with T1, DNA polymerase delta catalytic subunit (Homo sapiens) (UniProt P28340).
T1 sequence (whole entry): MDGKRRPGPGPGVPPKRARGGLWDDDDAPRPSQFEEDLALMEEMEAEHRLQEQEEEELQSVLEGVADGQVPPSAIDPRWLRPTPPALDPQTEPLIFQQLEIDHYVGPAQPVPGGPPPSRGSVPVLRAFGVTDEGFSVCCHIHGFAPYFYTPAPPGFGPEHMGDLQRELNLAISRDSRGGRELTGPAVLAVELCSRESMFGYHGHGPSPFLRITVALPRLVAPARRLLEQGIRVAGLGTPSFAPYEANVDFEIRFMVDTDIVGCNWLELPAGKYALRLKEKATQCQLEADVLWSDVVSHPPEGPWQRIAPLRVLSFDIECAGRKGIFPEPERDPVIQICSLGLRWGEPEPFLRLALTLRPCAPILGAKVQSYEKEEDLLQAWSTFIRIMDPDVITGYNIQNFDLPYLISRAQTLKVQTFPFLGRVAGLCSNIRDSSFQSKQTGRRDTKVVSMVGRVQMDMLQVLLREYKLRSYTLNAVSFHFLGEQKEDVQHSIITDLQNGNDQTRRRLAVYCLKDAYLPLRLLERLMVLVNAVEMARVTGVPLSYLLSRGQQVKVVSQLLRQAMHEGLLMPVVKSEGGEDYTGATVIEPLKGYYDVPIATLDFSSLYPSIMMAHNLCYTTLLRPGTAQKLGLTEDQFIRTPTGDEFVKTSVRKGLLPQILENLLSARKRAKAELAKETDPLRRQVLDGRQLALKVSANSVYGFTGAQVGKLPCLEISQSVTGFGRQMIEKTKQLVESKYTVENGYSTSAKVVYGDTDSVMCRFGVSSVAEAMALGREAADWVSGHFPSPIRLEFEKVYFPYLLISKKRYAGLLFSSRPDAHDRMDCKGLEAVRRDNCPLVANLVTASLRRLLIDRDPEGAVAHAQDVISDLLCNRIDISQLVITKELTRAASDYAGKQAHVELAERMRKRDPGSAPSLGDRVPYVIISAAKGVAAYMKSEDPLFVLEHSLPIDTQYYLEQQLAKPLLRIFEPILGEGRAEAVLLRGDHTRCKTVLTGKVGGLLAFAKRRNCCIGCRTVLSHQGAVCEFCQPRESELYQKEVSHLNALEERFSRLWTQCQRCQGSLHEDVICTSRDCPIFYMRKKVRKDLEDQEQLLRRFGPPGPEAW
Description: Inhibition of human DNA polymerase delta at 100 uM.

Experiment [2] is filed under the species Homo sapiens. Put plainly: Inhibition of human DNA polymerase epsilon at 100 uM.
For experiment [3], the system named is Tequatrovirus T4. Put plainly: Inhibition of T4 DNA polymerase at 100 uM.
Experiment [4] relates to Thermus aquaticus. Description: Inhibition of Taq DNA polymerase at 100 uM.
In experiment [5] the target is Inosine-5'-monophosphate dehydrogenase 2 (Mus musculus) (UniProt P24547). Description: Inhibition of mouse IMP dehydrogenase 2 at 100 uM.
Sequence of Inosine-5'-monophosphate dehydrogenase 2 (Mus musculus) (P24547 whole entry, looked up): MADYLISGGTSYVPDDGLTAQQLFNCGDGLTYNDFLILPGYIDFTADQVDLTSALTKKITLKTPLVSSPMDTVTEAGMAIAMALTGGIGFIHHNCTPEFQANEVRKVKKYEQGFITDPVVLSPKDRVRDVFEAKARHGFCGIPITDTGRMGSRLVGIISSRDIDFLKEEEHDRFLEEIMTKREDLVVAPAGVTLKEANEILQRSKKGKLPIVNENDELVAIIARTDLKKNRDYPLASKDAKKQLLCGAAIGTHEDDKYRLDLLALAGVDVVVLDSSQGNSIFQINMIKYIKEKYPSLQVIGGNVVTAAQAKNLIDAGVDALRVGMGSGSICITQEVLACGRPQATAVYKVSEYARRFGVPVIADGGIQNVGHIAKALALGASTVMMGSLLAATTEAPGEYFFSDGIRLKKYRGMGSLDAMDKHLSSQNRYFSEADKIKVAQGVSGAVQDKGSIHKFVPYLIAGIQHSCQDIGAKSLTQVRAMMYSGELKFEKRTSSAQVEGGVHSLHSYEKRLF
For experiment [6], the target named is Deoxyribonuclease-1 (Bos taurus) (UniProt P00639). Description: Inhibition of bovine deoxyribonuclease 1 at 100 uM.
Sequence of Deoxyribonuclease-1 (Bos taurus) (P00639 whole entry): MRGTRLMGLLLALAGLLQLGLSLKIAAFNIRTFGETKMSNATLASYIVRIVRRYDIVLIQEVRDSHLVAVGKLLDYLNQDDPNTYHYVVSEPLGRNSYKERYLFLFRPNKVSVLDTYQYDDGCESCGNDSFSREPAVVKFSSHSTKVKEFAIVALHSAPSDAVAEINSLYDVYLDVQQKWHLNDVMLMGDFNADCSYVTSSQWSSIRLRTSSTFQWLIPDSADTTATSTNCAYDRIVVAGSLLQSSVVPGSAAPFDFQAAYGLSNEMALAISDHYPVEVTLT
Experiment [7] deals with DNA polymerase beta (Rattus norvegicus, UniProt P06766). Description: Inhibition of rat DNA polymerase beta.
Experiment [8] concerns the target T2, DNA polymerase lambda (Homo sapiens) (UniProt Q9UGP5).
T2 sequence (whole entry): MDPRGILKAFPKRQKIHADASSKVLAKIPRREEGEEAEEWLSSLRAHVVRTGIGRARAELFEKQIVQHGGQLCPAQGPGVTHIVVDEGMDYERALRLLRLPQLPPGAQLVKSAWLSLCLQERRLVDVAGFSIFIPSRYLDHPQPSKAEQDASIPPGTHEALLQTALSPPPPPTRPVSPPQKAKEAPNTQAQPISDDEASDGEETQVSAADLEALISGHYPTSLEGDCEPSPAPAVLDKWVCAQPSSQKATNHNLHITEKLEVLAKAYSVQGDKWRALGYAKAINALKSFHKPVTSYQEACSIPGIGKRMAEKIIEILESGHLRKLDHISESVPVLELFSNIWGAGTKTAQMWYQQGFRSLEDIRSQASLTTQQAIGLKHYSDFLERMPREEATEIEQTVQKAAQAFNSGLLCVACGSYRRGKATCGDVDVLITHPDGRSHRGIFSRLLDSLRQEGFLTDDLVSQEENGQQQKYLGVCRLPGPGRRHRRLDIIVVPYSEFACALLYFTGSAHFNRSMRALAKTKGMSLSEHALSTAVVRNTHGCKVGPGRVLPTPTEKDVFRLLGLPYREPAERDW
Put plainly: Inhibition of human DNA polymerase lambda at 100 uM.

Experiment [9] deals with T3, DNA polymerase eta (Homo sapiens) (UniProt Q9Y253).
T3 sequence (whole entry): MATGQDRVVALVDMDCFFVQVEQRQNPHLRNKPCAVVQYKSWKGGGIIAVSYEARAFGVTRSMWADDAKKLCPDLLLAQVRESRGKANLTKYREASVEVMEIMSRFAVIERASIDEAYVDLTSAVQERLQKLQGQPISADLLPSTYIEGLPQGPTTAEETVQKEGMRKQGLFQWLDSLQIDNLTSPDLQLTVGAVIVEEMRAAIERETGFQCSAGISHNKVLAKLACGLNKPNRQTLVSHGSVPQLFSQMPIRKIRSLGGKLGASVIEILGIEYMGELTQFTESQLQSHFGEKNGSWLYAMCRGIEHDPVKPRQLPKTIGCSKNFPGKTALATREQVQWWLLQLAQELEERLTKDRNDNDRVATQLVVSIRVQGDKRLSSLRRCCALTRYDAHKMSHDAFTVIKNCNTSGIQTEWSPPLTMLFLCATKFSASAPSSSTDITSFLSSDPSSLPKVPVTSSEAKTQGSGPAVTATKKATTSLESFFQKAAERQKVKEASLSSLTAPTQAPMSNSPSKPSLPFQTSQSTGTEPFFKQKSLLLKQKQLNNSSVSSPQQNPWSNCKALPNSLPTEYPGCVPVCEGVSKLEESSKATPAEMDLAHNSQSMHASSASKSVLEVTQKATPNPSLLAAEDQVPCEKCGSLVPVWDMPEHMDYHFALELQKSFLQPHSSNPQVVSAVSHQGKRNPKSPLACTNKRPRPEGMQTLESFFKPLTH
Put plainly: Inhibition of human DNA polymerase eta at 100 uM.

The IC50 is the point on the concentration scale where inhibition reaches its midpoint. As for `COc1cc(O)c2c(=O)oc3c(c2c1)C(C)CC3=O` (stereo not drawn), the outcome in [1], in [2], in experiment [3], in [4], in experiment [5] and in experiment [6] was inactive. Moreover, the midpoint of inhibition in experiment [7], the IC50, lay at 11.9 µM. For the same molecule, the outcome in experiment [8] and in experiment [9] was Active.

With `COc1cc(O)c2c(c1)C1(OC2=O)C(C)=CC(=O)C1O` (stereo not drawn) [TALAROFLAVONE], the result in experiment [1], in experiment [2], in experiment [3], in experiment [4], in [5] and in [6] was inactive. Further, the IC50 in [7] was 16.3 µM. The outcome in experiment [8] and in experiment [9] was Active.

The values above are taken from ChEMBL document CHEMBL1143937, “1-deoxyrubralactone, a novel specific inhibitor of families X and Y of eukaryotic DNA polymerases from a fungal strain derived from sea algae” (Bioorg Med Chem, 2008).
